{"source": "paper PMC9103758", "about": "(International Journal of Molecular Sciences, 2022)", "key": {"ANO1": {"molecular_target": "T1, ANO1 (Homo sapiens, UniProt Q5XXA6, DEL476-501)", "T1 construct": "expressed in transfected cells; host or cells: Fisher rat thyroid (FRT) cells; The YFP assay uses FRT-ANO1-YFP cells, which also carry the halide sensor", "T1 sequence (Q5XXA6 with tags, fused parts or gaps isoform Q5XXA6-5 DEL539-564)": "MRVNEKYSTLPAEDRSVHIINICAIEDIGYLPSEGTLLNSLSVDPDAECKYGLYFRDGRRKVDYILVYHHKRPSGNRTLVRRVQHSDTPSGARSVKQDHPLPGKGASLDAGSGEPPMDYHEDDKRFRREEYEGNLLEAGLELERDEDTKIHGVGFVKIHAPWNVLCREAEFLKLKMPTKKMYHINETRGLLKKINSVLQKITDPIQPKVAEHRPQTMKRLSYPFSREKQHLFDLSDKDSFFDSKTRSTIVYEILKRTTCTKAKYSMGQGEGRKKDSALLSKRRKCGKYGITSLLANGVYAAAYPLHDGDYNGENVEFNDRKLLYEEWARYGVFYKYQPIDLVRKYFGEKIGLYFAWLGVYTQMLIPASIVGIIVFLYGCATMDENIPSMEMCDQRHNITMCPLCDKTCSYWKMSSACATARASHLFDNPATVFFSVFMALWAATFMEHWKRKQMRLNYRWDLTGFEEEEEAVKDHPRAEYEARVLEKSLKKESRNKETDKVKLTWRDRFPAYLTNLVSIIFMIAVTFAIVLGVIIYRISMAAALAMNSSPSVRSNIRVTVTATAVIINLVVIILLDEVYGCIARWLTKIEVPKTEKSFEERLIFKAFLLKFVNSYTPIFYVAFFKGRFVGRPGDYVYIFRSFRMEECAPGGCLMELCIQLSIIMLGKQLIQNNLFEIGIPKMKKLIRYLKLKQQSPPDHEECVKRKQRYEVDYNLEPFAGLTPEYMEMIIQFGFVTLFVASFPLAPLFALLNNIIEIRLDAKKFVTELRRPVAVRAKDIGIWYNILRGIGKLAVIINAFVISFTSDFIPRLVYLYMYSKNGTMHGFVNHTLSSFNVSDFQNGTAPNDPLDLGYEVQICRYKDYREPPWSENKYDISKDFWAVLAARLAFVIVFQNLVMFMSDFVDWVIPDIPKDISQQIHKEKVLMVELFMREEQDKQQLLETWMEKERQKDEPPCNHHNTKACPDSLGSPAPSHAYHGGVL", "test": "YFP fluorescence quenching assay for ANO1 activity in FRT-ANO1 cells", "type": "cell-based", "conditions": "ATP 100 μM, n = 4", "description": "Figure 2 Inhibitory effects of VI-101, VI-201 and VI-301 on VRAC and ANO1. (A–C) Representative YFP fluorescence traces for VRAC activity. LN215 cells were treated with the indicated concentrations of VI-101, VI-201 and VI-301 with hypotonic solution for 5 min. (D) Dose-response curve of VRAC inhibition (mean ± S.E., n = 4). (E–G) Representative YFP fluorescence traces for ANO1 activity. […]. (H) Dose-response curve of ANO1 inhibition (mean ± S.E., n = 4).\nHuman ANO1(abc) expressing Fisher rat thyroid (FRT) cells, ANO2 expressing FRT cells, and human CFTR expressing FRT cells were cultured as described in a previous study. LN215 cells were stably transfected with the halide sensor YFP-F46L/H148Q/I152 and NIH-3T3 cells cultured in DMEM were supplemented with 10% FBS, 2 mM L-glutamine, 100 units/mL penicillin, and 100 μg/mL streptomycin. HEK293T cells were stably transfected with the human Kv11.1 (hERG) and cultured in DMEM supplemented with 10% FBS, 2 mM L-glutamine, 100 units/mL penicillin, and 100 μg/mL streptomycin. PC3, HT29, and HeLa cells were stably transfected with the halide sensor YFP-F46L/H148Q/I152 and cultured in RPMI 1640 supplemented with 10% FBS, 2 mM L-glutamine, 100 units/mL penicillin, and 100 μg/mL streptomycin. […]"}, "NIH-3T3 cells": {"test_system": "NIH-3T3 cells", "test": "Cell viability (MTS/MTT) in NIH-3T3 cells", "type": "cell-based", "conditions": "24 h, up to/at 30 μM", "description": "[…]. (A) Structure of VI-116. (B) Representative YFP fluorescence traces. The inhibitory effects of VI-116 on VRAC activity were determined using YFP fluorescence assay in LN215 cells. VRAC was activated by application of […] solution for 5 min. (C) Summary of VRAC dose-response (mean ± S.E., n = 4). (D) Summary of VRAC dose−response with 10% FBS (mean ± S.E., n = 4). […].\nNIH-3T3 cells were plated on 96-well microplates. After 24 h incubation, cells were treated with VI-116 or DCPIB and incubated for 24 h. The culture medium and the compounds were changed every 12 h. To assess cell proliferation, the cells were incubated with MTS for 1 h. The soluble formazan produced by the cellular reduction of MTS was quantified by measuring the absorbance at 490 nm with an Infinite M200 (Tecan, Grödig, Austria) microplate reader. MTS assay was performed using a CellTiter 96 Aqueous One Solution Cell Proliferation Assay kit (Promega, Madison, WI, USA)."}, "VRAC": {"molecular_target": "T2, VRAC (Homo sapiens, UniProt Q8IWT6)", "T2 sequence (Q8IWT6 1-810)": "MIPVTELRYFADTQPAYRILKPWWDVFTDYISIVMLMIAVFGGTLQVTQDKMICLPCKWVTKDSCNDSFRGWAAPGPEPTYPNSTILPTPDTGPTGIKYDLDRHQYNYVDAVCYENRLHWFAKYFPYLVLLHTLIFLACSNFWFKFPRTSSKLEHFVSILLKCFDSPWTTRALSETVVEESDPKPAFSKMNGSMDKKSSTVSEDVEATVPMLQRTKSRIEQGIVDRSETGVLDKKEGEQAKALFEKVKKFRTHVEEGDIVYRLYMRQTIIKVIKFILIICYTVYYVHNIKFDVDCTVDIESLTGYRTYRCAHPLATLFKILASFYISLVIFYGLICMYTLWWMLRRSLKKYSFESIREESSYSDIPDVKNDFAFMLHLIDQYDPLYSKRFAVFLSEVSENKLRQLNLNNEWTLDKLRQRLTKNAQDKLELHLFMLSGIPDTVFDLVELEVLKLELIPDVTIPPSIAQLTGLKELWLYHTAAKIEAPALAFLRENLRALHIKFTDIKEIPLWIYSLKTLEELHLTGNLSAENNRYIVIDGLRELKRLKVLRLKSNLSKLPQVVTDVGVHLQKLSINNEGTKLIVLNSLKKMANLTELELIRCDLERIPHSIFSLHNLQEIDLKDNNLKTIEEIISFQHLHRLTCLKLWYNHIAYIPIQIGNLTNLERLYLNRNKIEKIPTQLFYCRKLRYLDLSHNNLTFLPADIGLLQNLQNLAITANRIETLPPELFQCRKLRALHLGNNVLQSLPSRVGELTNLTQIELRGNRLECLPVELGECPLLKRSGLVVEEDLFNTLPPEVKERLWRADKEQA"}}, "data": [{"smiles": "COc1cccc(C(c2c(O)c3ccccc3oc2=O)c2c(O)c3ccccc3oc2=O)c1O", "note": "[VI-116, 3,3′-((2-hydroxy-3-methoxyphenyl)methylene)bis(4-hydroxy-2H-chromen-2-one)]", "values": [{"measurement": "IC50", "setting": "ANO1", "value": 39.1, "unit": "µM"}, {"measurement": "effect on cell viability", "setting": "NIH-3T3 cells", "value": "did not affect cell viability"}, {"measurement": "effect on VRAC", "setting": "VRAC; 10 μM", "value": "completely inhibits"}, {"measurement": "effect on VRAC activity (VRAC-mediated I- quenching)", "setting": "VRAC; LN215 cells", "value": "fully inhibited"}, {"measurement": "decrease of potency on VRAC with 10% FBS compared to without FBS", "setting": "VRAC; LN215 cells, 10% FBS", "value": 5.4, "unit": "fold"}]}]}
